Data reported in patent US8106215B2, “3-aza-bicyclo[3.3.0]octane compounds” (Actelion Pharmaceuticals Ltd., priority 2007, dated 2012).

Key:
human orexin-2 receptor = target: T1, human orexin-2 receptor (Homo sapiens, UniProt O43614); test: Intracellular calcium measurements (FLIPR), orexin receptor antagonistic activity, OX2; type: cell-based; settings: CHO cells expressing human orexin-2 receptor, 3 nM orexin-A
T1 construct: expressed in transfected cells; host or cells: CHO cells (G418 selection)
T1 sequence (O43614 1-444): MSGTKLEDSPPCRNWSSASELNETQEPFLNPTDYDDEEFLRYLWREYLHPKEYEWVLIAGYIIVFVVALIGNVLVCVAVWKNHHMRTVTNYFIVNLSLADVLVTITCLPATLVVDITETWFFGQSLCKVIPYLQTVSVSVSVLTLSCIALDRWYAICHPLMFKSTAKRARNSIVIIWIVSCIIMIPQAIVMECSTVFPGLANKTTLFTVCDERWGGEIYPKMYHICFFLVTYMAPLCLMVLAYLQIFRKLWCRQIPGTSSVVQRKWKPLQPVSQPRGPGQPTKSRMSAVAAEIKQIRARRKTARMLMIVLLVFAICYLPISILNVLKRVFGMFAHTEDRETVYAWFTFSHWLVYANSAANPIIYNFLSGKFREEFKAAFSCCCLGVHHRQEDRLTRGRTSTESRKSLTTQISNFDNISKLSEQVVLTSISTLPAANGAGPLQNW
Protocol: (§1) The orexin receptor antagonistic activity of the compounds of formula (I) is determined in accordance with the following experimental method.
(§2) Intracellular Calcium Measurements:
(§3) Chinese hamster ovary (CHO) cells expressing the human orexin-1 receptor and the human orexin-2 receptor, respectively, are grown in culture medium (Ham F-12 with L-Glutamine) containing 300 μg/ml G418, 100 U/ml penicillin, 100 μg/ml streptomycin and 10% heat inactivated fetal calf serum (FCS). The cells are seeded at 20,000 cells/well into 384-well black clear bottom sterile plates (Greiner). The seeded plates are incubated overnight at 37° C. in 5% CO2.
(§4) Human orexin-A as an agonist is prepared as 1 mM stock solution in MeOH:water (1:1), diluted in HBSS containing 0.1% bovine serum albumin (BSA), NaHCO3: 0.375 g/l and 20 mM HEPES for use in the assay at a final concentration of 3 nM.
(§5) Antagonists are prepared as 10 mM stock solution in DMSO, then diluted in 384-well plates using DMSO followed by a transfer of the dilutions into in HBSS containing 0.1% bovine serum albumin (BSA), NaHCO3: 0.375 g/l and 20 mM HEPES. On the day of the assay, 50 μl of staining buffer (HBSS containing 1% FCS, 20 mM HEPES, NaHCO3: 0.375 g/l, 5 mM probenecid (Sigma) and 3 μM of the fluorescent calcium indicator fluo-4 AM (1 mM stock solution in DMSO, containing 10% pluronic) is added to each well. The 384-well cell-plates are incubated for 50 min at 37° C. in 5% CO2 followed by equilibration at rt for 30-120 min before measurement.
(§6) Within the Fluorescent Imaging Plate Reader (FLIPR2 or FLIPR Tetra, Molecular Devices), antagonists are added to the plate in a volume of […], incubated for 10 min and finally 10 μl/well of agonist is added. Fluorescence is measured for each well at 1 second intervals, and the height of each fluorescence peak is compared to the height of the fluorescence peak induced by 3 nM orexin-A with vehicle in place of antagonist. For each antagonist, the IC50 value (the concentration of compound needed to inhibit 50% of the agonistic response) is determined. With the FLIPR Tetra, non-optimized and optimized conditions were used. Optimized conditions were achieved by adjustment of pipetting speed and cell splitting regime. The calculated IC50 values of the compounds may fluctuate depending on the daily cellular assay performance. Fluctuations of this kind are known to those skilled in the art.

human orexin-1 receptor = target: T2, human orexin-1 receptor (Homo sapiens, UniProt O43613); test: Intracellular calcium measurements (FLIPR), orexin receptor antagonistic activity, OX1; type: cell-based; settings: CHO cells expressing human orexin-1 receptor, 3 nM orexin-A
T2 construct: expressed in transfected cells; host or cells: CHO cells (G418 selection)
T2 sequence (O43613 1-425): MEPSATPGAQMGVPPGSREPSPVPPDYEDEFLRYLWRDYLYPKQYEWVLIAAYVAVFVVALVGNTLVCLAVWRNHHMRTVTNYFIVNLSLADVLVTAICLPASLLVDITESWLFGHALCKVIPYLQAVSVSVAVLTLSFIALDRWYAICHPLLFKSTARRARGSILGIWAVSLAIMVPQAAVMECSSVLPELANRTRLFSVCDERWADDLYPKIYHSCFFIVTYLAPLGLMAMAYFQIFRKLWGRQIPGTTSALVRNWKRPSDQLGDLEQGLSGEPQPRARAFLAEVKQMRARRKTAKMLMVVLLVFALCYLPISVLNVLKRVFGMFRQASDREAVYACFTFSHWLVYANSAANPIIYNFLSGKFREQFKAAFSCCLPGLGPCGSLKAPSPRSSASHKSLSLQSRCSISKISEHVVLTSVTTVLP
Protocol: as §1, §2, §3, §4, §5, §6

[1] = FLIPR Tetra, non-optimized conditions
[2] = FLIPR Tetra, optimized conditions

SMILES	IC50 (human orexin-2 receptor; FLIPR2) [nM]	IC50 (human orexin-1 receptor; FLIPR2) [nM]	IC50 (human orexin-2 receptor; [1]) [nM]	IC50 (human orexin-1 receptor; [1]) [nM]	further results
Cc1cccc(-c2sc(C)nc2C(=O)N2C[C@@H]3CC(C)C[C@@H]3[C@H]2CNC(=O)c2cnc3sccn23)c1 (stereo partly drawn) [Example 11, Imidazo[2,1-b]thiazole-5-carboxylic acid-(1S,2S,5R)-[7-methyl-3-(2-methyl-5-m-tolyl-thiazole-4-carbonyl)-3-aza-bicyclo[3.3.0]oct-2-ylmethyl]-amide]	9	7	–	–	–
Cc1cccc(C(=O)NC[C@@H]2[C@H]3CC(C)C[C@H]3CN2C(=O)c2nc(C)sc2-c2cccc(C)c2)c1 (stereo partly drawn) [Example 19, (1S,2S,5R)-3-Methyl-N-[7-methyl-3-(2-methyl-5-m-tolyl-thiazole-4-carbonyl)-3-aza-bicyclo[3.3.0]oct-2-ylmethyl]-benzamide]	47	77	–	–	–
Cc1nc(C(=O)N2C[C@@H]3CC(C)C[C@@H]3[C@H]2CNC(=O)c2c(C)nc3sccn23)c(-c2cccc(C(F)(F)F)c2)s1 (stereo partly drawn) [Example 36, 6-Methyl-imidazo[2,1-b]thiazole-5-carboxylic acid-(1S,2S,5R)-{7-methyl-3-[2-methyl-5-(3-trifluoromethyl-phenyl)-thiazole-4-carbonyl]-3-aza-bicyclo[3.3.0]oct-2-ylmethyl}-amide]	–	–	262	44	–
Cc1cccc(-c2sc(C)nc2C(=O)N2C[C@@H]3CC(C)C[C@@H]3[C@H]2CNC(=O)c2noc3ccccc23)c1 (stereo partly drawn) [Example 7, Benzo[d]isoxazole-3-carboxylic acid-(1S,2S,5R)-[7-methyl-3-(2-methyl-5-m-tolyl-thiazole-4-carbonyl)-3-aza-bicyclo[3.3.0]oct-2-ylmethyl]-amide]	13	12	–	–	–
Cc1cccc(-c2sc(C)nc2C(=O)N2C[C@@H]3CC(F)(F)C[C@@H]3[C@H]2CNC(=O)c2cccc3ncsc23)c1 [Example 81, Benzothiazole-7-carboxylic acid-(1S,2S,5R)-[7,7-difluoro-3-(2-methyl-5-m-tolyl-thiazole-4-carbonyl)-3-aza-bicyclo[3.3.0]oct-2-ylmethyl]-amide]	–	–	–	–	IC50 (human orexin-2 receptor; [2]): 10 nM; IC50 (human orexin-1 receptor; [2]): 6 nM
Cc1nc(C(=O)N2C[C@@H]3CC(C)C[C@@H]3[C@H]2CNC(=O)c2c(C)nc3sccn23)c(-c2ccc(F)c(F)c2)s1 (stereo partly drawn) [Example 51, 6-Methyl-imidazo[2,1-b]thiazole-5-carboxylic acid-(1S,2S,5R)-{3-[5-(3,4-difluoro-phenyl)-2-methyl-thiazole-4-carbonyl]-7-methyl-3-aza-bicyclo[3.3.0]oct-2-ylmethyl}-amide]	–	–	94	33	–
Cc1cccc(-c2sc(C)nc2C(=O)N2C[C@@H]3CC(C)C[C@@H]3[C@H]2CNC(=O)c2c(C)noc2C)c1 (stereo partly drawn) [Example 6, 3,5-Dimethyl-isoxazole-4-carboxylic acid-(1S,2S,5R)-[7-methyl-3-(2-methyl-5-m-tolyl-thiazole-4-carbonyl)-3-aza-bicyclo[3.3.0]-2-ylmethyl]-amide]	114	59	–	–	–
Cc1nc2sccn2c1C(=O)NC[C@@H]1[C@H]2CCC[C@H]2CN1C(=O)c1ccccc1-c1ccccc1 [Example 60, 6-Methyl-imidazo[2,1-b]thiazole-5-carboxylic acid-(1S,2S,5R)-[3-(biphenyl-2-carbonyl)-3-aza-bicyclo[3.3.0]oct-2-ylmethyl]-amide]	–	–	21	16	–
Cc1cccc(-c2sc(C)nc2C(=O)N2C[C@@H]3CC(F)(F)C[C@@H]3[C@H]2CNC(=O)c2cccc3c2CCO3)c1 [Example 79, 2,3-Dihydro-benzofuran-4-carboxylic acid-(1S,2S,5R)-[7,7-difluoro-3-(2-methyl-5-m-tolyl-thiazole-4-carbonyl)-3-aza-bicyclo[3.3.0]oct-2-ylmethyl]-amide]	–	–	–	–	IC50 (human orexin-2 receptor; [2]): 20 nM; IC50 (human orexin-1 receptor; [2]): 8 nM
Cc1cccc(-c2sc(C)nc2C(=O)N2C[C@@H]3CC(C)C[C@@H]3[C@H]2CNC(=O)c2cc(Cl)ccn2)c1 (stereo partly drawn) [Example 25, 4-Chloro-pyridine-2-carboxylic acid-(1S,2S,5R)-[7-methyl-3-(2-methyl-5-m-tolyl-thiazole-4-carbonyl)-3-aza-bicyclo[3.3.0]oct-2-ylmethyl]-amide]	48	24	–	–	–
Cc1cccc(-c2sc(C)nc2C(=O)N2C[C@@H]3CC(F)(F)C[C@@H]3[C@H]2CNC(=O)c2c(C)nc3sccn23)c1 [Example 85, 6-Methyl-imidazo[2,1-b]-thiazole-5-carboxylic acid-(1S,2S,5R)-[7,7-difluoro-3-(2-methyl-5-m-tolyl-thiazole-4-carbonyl)-3-aza-bicyclo[3.3.0]oct-2-ylmethyl]-amide]	–	–	–	–	IC50 (human orexin-2 receptor; [2]): 18 nM; IC50 (human orexin-1 receptor; [2]): 7 nM
COc1cccc(-c2sc(C)nc2C(=O)N2C[C@@H]3CCC[C@@H]3[C@H]2CNC(=O)c2c(C)nc3sccn23)c1 [Example 33, 6-Methyl-imidazo[2,1-b]thiazole-5-carboxylic acid-(1S,2S,5R)-{3-[5-(3-methoxy-phenyl)-2-methyl-thiazole-4-carbonyl]-3-aza-bicyclo[3.3.0]oct-2-ylmethyl}-amide]	–	–	17	8	–
Cc1nc2sccn2c1C(=O)NC[C@@H]1[C@H]2CCC[C@H]2CN1C(=O)c1nc(N)sc1-c1cccc(F)c1 [Example 70, 6-Methyl-imidazo[2,1-b]thiazole-5-carboxylic acid-(1S,2S,5R)-{3-[2-amino-5-(3-fluoro-phenyl)-thiazole-4-carbonyl]-3-aza-bicyclo[3.3.0]oct-2-ylmethyl}-amide]	–	–	20	17	–
